“And” between values parts separate entries of the source, which are not always exact repeats. Identical values can stand only once. Counter-ions that a name gives are not always drawn. Values belong to the compound of their own block, whether it stands above or below them.
How the values were obtained:
P. aeruginosa biofilms = assay: MBEC, MBEC Inoculation Tray (Innovotech), to 10^2 CFU/peg in 24 hours; type: cell-based; conditions: Pseudomonas aeruginosa; Table 3A c5; group head missing, probably MBEC; read-out: MICs (μg/mL): P. aeruginosa (second P. aeruginosa)
Source text: To determine the MBEC of each polyamine compound, the MBEC Inoculation Tray by Innovotech, formerly known as the Calgary biofilm device, was used. Within this device, biofilms grow on the surface of polystyrene pegs, 96 of which are attached to a lid. These pegs are inserted into a flat bottom 96-well plate. In this instance, the MBEC of a molecule was defined as the concentration of compound (in μg/mL) required to reduce 10^5 or 10^6 CFU/peg (biofilm levels varied by isolate) to 10^2 CFU/peg in a 24-hour period.
Following the manufacturer's guidelines, biofilms were grown on the surface of each peg by first making a 0.5 McFarland of each isolate. The 0.5 McFarland was diluted 1:100 in CAMHB. Into each well of a flat bottom 96-well plate, 150 μL of broth were pipetted. The plate was shaken at 100 rpm for 24 hours (P. aeruginosa and A. baumannii) or 48 hours (MRSA). The pegs were then placed into a separate flat bottom 96-well plate for 10 seconds with 200 μL of phosphate buffered saline (PBS) in each well to remove nonadherent cells. The lid was then placed into a 96-well plate that contained varying concentrations of antimicrobial with 200 μL per well. The plate was incubated for 24 hours at 37° C. after which time 100 μL of broth were plated on TSA. TSA plates were incubated 24 hours at 37° C. and the number of CFU counted to calculate the CFU/peg. […]

biofilm of MRSA = assay: Combination treatment: dispersal of a biofilm; type: cell-based, Staphylococcus aureus; conditions: […] mixed with chlorhexidine gluconate at […]; biofilm of 10^11 cells; within one hour
[1] = tested on: various bacterial cell cultures; assay: Antimicrobial activity of polyamines in hydrogel on agar lawns; type: cell-based; conditions: 0.5% CZ compound in 0.5% sodium hyaluronate gel, 500 uL on TSA lawn, 37 C for 24 hours
Procedure: A 0.5 McFarland standard of each bacteria was made, then individual lawns of bacteria spread onto the surface of tryptic soy agar (TSA). 500 uL of the suspended gel were placed on the center of each lawn. Plates were incubated at 37 C for 24 hours, then imaged. Images of the resulting gels are shown in FIGS. 30A to 30I show the effects of the polyamines CZ-86, CZ-100, and CZ-110 on various bacterial cell cultures.
The hydrogel that was used for those images is a LifeCore gel with 1% sodium hyaluronate (1% Sodium Hyaluronate Solution Part #82). The CZ compound was suspended in water at 1% (w/w) concentration and combined with the LifeCore gel 1:1 for a final product that contained 0.5% sodium hyaluronate and 0.5% CZ compound.

MRSA = assay: MIC, microdilution CLSI M26-A (Example 2); type: cell-based; conditions: Staphylococcus aureus, 24 h, read-out: MIC (μg/mL/μM)
Procedure: The second test determined the minimum inhibitory concentration (MIC) of the compound against MRSA and P. aeruginosa ATCC 27853. […] This definition was consistent with the Clinical and Laboratory Standards Institute (CLSI). More specifically, the microdilution method as outlined in the M26-A CLSI guideline was used. All tests were performed with cation adjusted Mueller Hinton broth.

MRSA biofilms = assay: EBEC, biofilms on PEEK membranes, eradication of all detectable bacteria (Example 2); type: cell-based, Staphylococcus aureus; conditions: ~2×10^11 cells per PEEK membrane, eradicate all detectable bacteria
Procedure: The fourth test that was performed was the effective biofilm eradication concentration (EBEC). To determine the EBEC, biofilms of MRSA and P. aeruginosa ATCC 27853 were grown on the surface of PEEK membranes using a previously established protocol. Briefly, 500 mL of brain heart infusion (BHI) broth were inoculated with 10^5 cells/mL of MRSA or P. aeruginosa. BHI broth was placed into a membrane biofilm reactor and placed on a hot plate set at 34° C. for 24 hours with a stir bar rotating at 130 rpm. Following the initial 24-hour growth period, a 10% BHI broth solution was flowed through the reactor at a rate of 6.944 mL/min for another 24 hours. After 48 hours of growth, each PEEK membrane had biofilm growth on it. In this experiment, there were ˜2×10^11 cells of MRSA per PEEK membrane and ˜2×10^10 cells of P. aeruginosa per PEEK membrane. The EBEC was defined as the concentration of the compound that was required to eradicate all detectable amounts (100%) of bacteria within the biofilms.

- MIC (P. aeruginosa biofilms): > 5000 µg/mL
SMILES: NCCCNCCCNCc1ccccc1 [CZ-7, benzylnorspermidine]
- dispersal of a biofilm of MRSA (biofilm of MRSA): significant dispersal

SMILES: CC(C)CNCCCNCCCNCc1cc(CNCCCNCCCNCC(C)C)cc(-c2ccccc2)c1 [CZ-86, N^1,N^1′-([1,1′-biphenyl]-3,5-diylbis(methylene))bis(N^3-(3-(isobutylamino)propyl)propane-1,3-diamine), hydrochloride salt]
- zones of inhibition in bacterial lawns [1]: created zones of inhibition

SMILES: CN[C@H](CC(C)C)C(=O)N[C@H]1C(=O)N[C@@H](CC(N)=O)C(=O)N[C@H]2C(=O)N[C@H]3C(=O)N[C@H](C(=O)N[C@H](C(=O)O)c4cc(O)cc(O)c4-c4cc3ccc4O)[C@H](O)c3ccc(c(Cl)c3)Oc3cc2cc(c3O[C@@H]2O[C@H](CO)[C@@H](O)[C@H](O)[C@H]2O[C@H]2C[C@](C)(N)[C@H](O)[C@H](C)O2)Oc2ccc(cc2Cl)[C@H]1O [vancomycin, reference compound]
- MIC (MRSA): 10 µg/mL and 6.73 µM
- EBEC (μg/mL/μM) (MRSA biofilms): > 20,000 μg/mL and > 13,460 μM

From patent US10440955B2, “Methods comprising a biocidal polyamine” (Curza Global, LLC, priority 2013, dated 2019)
